Measurements reported in patent US20230165812A1, “NOCICEPTOR NEURONS CONTROL CANCER IMMUNOSURVEILLANCE” (priority 2020, published 2023).
“Also recorded” adds a separate entry of the source. Like-named read-outs stand apart in the source and are kept apart here.

Columns and labels:
[1] = test system: CGRP; parameters: species or system mice; settings: capsaicin 1 μM; 3 h
[2] = test system: cytotoxic CD8+ T-cells co-cultured with DRG neurons; test: DRG neuron / cytotoxic CD8+ T-cell co-culture; format: cell-based, mice; settings: for INFγ+ CD8+ T-cells in co-culture with DRG neurons / TNFα+ CD8+ T-cells in co-culture with DRG neurons / proportion of PD1+Lag3+Tim3+ CD8+ T-cells in co-culture with DRG neurons: neuron stimulation, 48 h co-culture
Experimental: Naïve DRG neurons (1×10^4) were seeded in T cell media (supplemented with 0.05 ng/μL NGF (Life Technologies, #13257-019), 0.002 ng/μL GDNF (Peprotech, #450-51-10), and co-cultured with Tc1 CD8 T cells (1×10^5) in presence of IL-2 (575408). In some instances, co-cultures were stimulated with either of capsaicin (300 nM, twice/day) or KCl (40 mM). After 48 h, the cells were collected by centrifugation (5 min at 1300 rpm), stained and immunophenotyped by flow cytometry.

[3] = test system: cytotoxic CD8+ T-cells co-cultured with DRG neurons; test: DRG neuron / cytotoxic CD8+ T-cell co-culture; format: cell-based, mice; settings: capsaicin without neurons
[4] = test system: B16F10; format: in vivo, mice
[5] = test system: B16F10; format: in vivo, mice; settings: for reduction of B16F10 melanoma growth compared with vehicle / reduction of tumor weight compared with vehicle: B16F10-bearing mice; for reduction of B16F10 melanoma growth compared with vehicle: QX-314 0.3% daily i.d. surrounding the tumor, BIBN4096 systemically once every two days (5 mg/kg i.p.); for reduction of tumor weight compared with vehicle: QX-314 0.3% daily i.d., BIBN4096 5 mg/kg i.p.
[6] = test system: cytotoxic CD8+ T-cells
[7] = test system: tumor-infiltrating CD8+ and CD4+ T-cells; format: in vivo, mice; settings: for reduction of the proportion of PD1+Lag3+Tim3+ CD8+ T-cells: intra-tumoral, QX-314 0.3% daily i.d.
[8] = test system: B16F10; parameters: species or system mice; settings: mouse, in vivo
[9] = test system: B16F10 cells; format: cell-based, mouse; settings: BIBN4096 1-4 μM
[10] = target: CGRP receptor (Mus musculus, UniProt Q9R1W5+Q9WTJ5); settings: in vivo; cited from earlier work
Chain of CGRP receptor (Q9R1W5 25-463): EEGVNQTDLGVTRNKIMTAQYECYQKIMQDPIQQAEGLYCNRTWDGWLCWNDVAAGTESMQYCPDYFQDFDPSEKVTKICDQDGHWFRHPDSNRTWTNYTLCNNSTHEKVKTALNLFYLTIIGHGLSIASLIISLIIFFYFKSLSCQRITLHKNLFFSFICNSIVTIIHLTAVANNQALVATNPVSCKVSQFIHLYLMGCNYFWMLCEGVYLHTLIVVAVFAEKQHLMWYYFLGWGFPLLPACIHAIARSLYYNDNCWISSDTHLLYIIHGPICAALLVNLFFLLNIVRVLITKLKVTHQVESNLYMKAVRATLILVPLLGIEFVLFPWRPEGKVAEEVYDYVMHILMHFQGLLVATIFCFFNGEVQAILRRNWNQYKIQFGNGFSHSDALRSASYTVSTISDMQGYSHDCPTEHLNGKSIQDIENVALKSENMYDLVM
Chain of CGRP receptor (Q9WTJ5 27-148): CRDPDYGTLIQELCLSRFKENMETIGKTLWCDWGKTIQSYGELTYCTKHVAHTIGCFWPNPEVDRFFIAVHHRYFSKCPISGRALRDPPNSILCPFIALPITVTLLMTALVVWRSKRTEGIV

[11] = test system: tumor-infiltrating CD8 and CD4 T cells; format: in vivo, mice

COc1cc(CNC(=O)CCCC/C=C/C(C)C)ccc1O [capsaicin]
CGRP levels in B16F10 tumor surrounding skin explant [1]: further enhanced | IL2+ CD8+ T-cells in co-culture with DRG neurons ([2]; capsaicin-challenge): decreased | proportion of PD1+ T cells in co-culture with DRG neurons ([2]; capsaicin-challenge): increases | INFγ+ CD8+ T-cells in co-culture with DRG neurons [2]: reduced; also recorded: decreased | TNFα+ CD8+ T-cells in co-culture with DRG neurons [2]: decreased; also recorded: reduced | proportion of PD1+Lag3+Tim3+ CD8+ T-cells in co-culture with DRG neurons [2]: increased | INFγ+ CD8+ T-cells in co-culture with DRG neurons ([2]; listed as Capsaicin): decreased | TNFα+ CD8+ T-cells in co-culture with DRG neurons ([2]; listed as Capsaicin): decreased | impact on CD8+ T-cells in the absence of neurons [3]: no measurable impact

CC[N+](CC)(CC)CC(=O)Nc1c(C)cccc1C [QX-314]
rate at which vehicle exposed mice succumb relative to treated mice ([4]; B16F10-bearing mice, p≤0.0001): 2.7 fold | hazard ratio (survival) ([4]; mouse, in vivo): 0.37 | reduction of B16F10 melanoma growth compared with vehicle [5]: ~3.3 fold | reduction of tumor weight compared with vehicle [5]: ~5.2 fold | IL2+ cultured cytotoxic CD8+ T-cells [6]: do not impact | INFγ+ cultured cytotoxic CD8+ T-cells [6]: do not impact | TNFα+ cultured cytotoxic CD8+ T-cells [6]: do not impact | proportion of PD1+Lag3+Tim3+ cultured cytotoxic CD8+ T-cells [6]: do not impact | survival of cultured cytotoxic CD8+ T-cells [6]: do not impact | reduction of the proportion of PD1+Lag3+Tim3+ CD8+ T-cells ([7]; BIBN4096 5 mg/kg i.p.): ~15 fold

NCCCC[C@H](NC(=O)[C@@H](Cc1cc(Br)c(O)c(Br)c1)NC(=O)N1CCC(N2Cc3ccccc3NC2=O)CC1)C(=O)N1CCN(c2ccncc2)CC1 [BIBN4096]
B16F10 tumor growth [8]: reduced; also recorded: decreased | B16F10 tumor volume [8]: reduced | B16F10 tumor weight [8]: reduced | cultured B16F10 survival [9]: no impact | reduction of B16F10 melanoma growth compared with vehicle [5]: ~1.5 fold | reduction of tumor weight compared with vehicle [5]: ~1.9 fold | B16F10 tumor growth ([5]; mouse, in vivo, ip, 5 mg/kg): decreased | B16F10 tumor volume ([5]; mouse, in vivo, ip, 5 mg/kg): decreased | B16F10 tumor weight ([5]; mouse, in vivo, ip, 5 mg/kg): decreased | IL2+ cultured cytotoxic CD8+ T-cells [6]: do not impact | INFγ+ cultured cytotoxic CD8+ T-cells [6]: do not impact | TNFα+ cultured cytotoxic CD8+ T-cells [6]: do not impact | proportion of PD1+Lag3+Tim3+ cultured cytotoxic CD8+ T-cells [6]: do not impact | survival of cultured cytotoxic CD8+ T-cells [6]: do not impact | effects of αCD3/αCD28 stimulation on CD8+ T-cells ([6]; BIBN4096 1-4 μM): do not prevent | host anti-bacterial activity during microbe infection [10]: rescues | increase of intra-tumor number of INFγ+ CD8+ T-cells ([7]; BIBN4096 5 mg/kg i.p.): ~3 fold | increase of intra-tumor number of total CD8+ T-cells ([7]; BIBN4096 5 mg/kg i.p.): ~3 fold | intra-tumoral number of Granzyme B+ CD4+ T-cells ([7]; BIBN4096 5 mg/kg i.p.): increased | intra-tumoral number of INFγ+ CD4+ T-cells ([7]; BIBN4096 5 mg/kg i.p.): increased | intra-tumoral number of TNFα+ CD4+ T-cells ([7]; BIBN4096 5 mg/kg i.p.): increased | intra-tumoral proportion of PD1+ CD4+ T-cells ([7]; BIBN4096 5 mg/kg i.p.): decreased | intra-tumoral number of Granzyme B+ CD8+ T-cells ([7]; Example 1 dosing): increased | intra-tumoral number of INFγ+ CD8+ T-cells ([7]; Example 1 dosing): increased | intra-tumoral number of TNFα+ CD8+ T-cells ([7]; Example 1 dosing): increased | intra-tumoral number of total CD8+ T-cells ([7]; Example 1 dosing): increased | reduction of the proportion of PD1+Lag3+Tim3+ CD8+ T-cells ([7]; BIBN4096 5 mg/kg i.p.): ~2.5 fold | intra-tumoral total CD4+ T-cells counts ([7]; mouse, in vivo): increased | number/proportion of intra-tumor PD1+Lag3+Tim3+ CD8+ T-cells ([7]; mouse, in vivo, ip, 5 mg/kg): decreased | intra-tumor PD1+ CD8 T cells ([11]; BIBN 5 mg/kg): decreased | tumor infiltration of PD1+ CD4 T cells ([11]; BIBN 5 mg/kg i.d.): decreased | infiltration of INFγ+ CD8 T cells ([11]; Example 2 dosing): increasing; also recorded: enhanced | total number of intra-tumoral CD4 T cells ([11]; Example 2 dosing): enhanced; also recorded: increased | tumor infiltration of INFγ+ CD4 T cells ([11]; Example 2 dosing): increased | tumor infiltration of TNFα+ CD4 T cells ([11]; Example 2 dosing): decreased | tumor infiltration of TNFα+ CD8 T cells ([11]; Example 2 dosing): increasing; also recorded: increased | tumor infiltration of Granzyme B+ CD4 T cells ([11]; mouse, in vivo): increased | tumor infiltration of Granzyme B+ CD8 T cells ([11]; mouse, in vivo): increasing; also recorded: increased

[Cl-].[K+] [KCl, potassium chloride]
INFγ+ CD8+ T-cells in co-culture with DRG neurons [2]: decreased | TNFα+ CD8+ T-cells in co-culture with DRG neurons [2]: decreased | proportion of PD1+Lag3+Tim3+ CD8+ T-cells in co-culture with DRG neurons [2]: increased
